By IC50 is commonly meant the concentration needed to halve the response being measured. A low value points to greater potency. Usually Ki stands for the dissociation constant of the complex between target and ligand, obtained from inhibition or displacement.

A value given as a limit tells only on which side of the number the result lay.

The values below come from patent US9598401B2, “Substituted heteroaryl compounds and methods of use thereof” (Sunshine Lake Pharma Co., Ltd., priority 2013, dated 2017).

One experiment addresses serotonin transporter (Rattus norvegicus (Rat), UniProt P31652). Kind of experiment: Inhibitory effect on [3H]5-HT uptake in rat synaptosome. It is filed as biochemical. Particulars: rat brain synaptosomes, 37° C., 15 minutes, 0.1 μCi [3H]5-HT. The protocol:
The synaptosomes (150 μg) prepared from the rat brain were incubated at 37° C. for 15 minutes with 0.1 μCi [^3H]5-HT in the absence or presence of the test compound or the reference compound in a buffer solution containing 106.2 mM NaCl, 4.5 mM KCl, 2.25 mM MgSO4, 1.08 mM NaH2PO4, 22.5 mM NaHCO3, 9.9 mM glucose, 9 μM EGTA and 45 μM ascorbic acid (pH 7.4).
Inhibition of serotonin transporter in rat synaptosome was measured by the concentrations of [^3H]5-HT.

The next experiment addresses dopamine D2S receptor (Homo sapiens (Human), UniProt P14416). Kind of experiment: Affinity for human dopamine D2S receptor ([3H]methyl-spiperone binding). As to conditions: 0.3 nM [3H]methyl-spiperone, cell membrane homogenates, 22° C., 60 minutes.
The target of the next experiment is 5-HT1A receptor (Homo sapiens (Human), UniProt P08908). Kind of experiment: Affinity for human 5-HT1A receptor ([3H]8-OH-DPAT binding, HEK-293 cell homogenates).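 Further: Filter-retained radioactivity counted by scintillation, non-specific binding defined with 10 µM 8-OH-DPAT, Ki derived from percent inhibition of specific radioligand binding versus control.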 As to conditions: read-out: Ki, binding affinity for 5-HT1A receptor; 0.3 nM [3H]8-OH-DPAT, human HEK-293 cell homogenates, 22° C., 60 minutes.
Sequence of 5-HT1A receptor (P08908 whole entry): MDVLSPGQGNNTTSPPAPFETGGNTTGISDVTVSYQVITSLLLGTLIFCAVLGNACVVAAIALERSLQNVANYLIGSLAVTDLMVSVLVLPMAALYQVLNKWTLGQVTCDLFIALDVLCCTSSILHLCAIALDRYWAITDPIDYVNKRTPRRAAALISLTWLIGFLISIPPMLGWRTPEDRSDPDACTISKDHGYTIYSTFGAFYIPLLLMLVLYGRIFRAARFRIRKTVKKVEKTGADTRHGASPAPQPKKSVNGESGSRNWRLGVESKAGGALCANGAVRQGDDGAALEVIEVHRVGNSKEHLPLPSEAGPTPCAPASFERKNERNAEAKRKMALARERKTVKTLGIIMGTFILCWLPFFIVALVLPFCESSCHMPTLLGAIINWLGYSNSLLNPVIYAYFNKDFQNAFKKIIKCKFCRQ

Sequence of dopamine D2S receptor (P14416 other isoform, or with tags, fused parts or gaps): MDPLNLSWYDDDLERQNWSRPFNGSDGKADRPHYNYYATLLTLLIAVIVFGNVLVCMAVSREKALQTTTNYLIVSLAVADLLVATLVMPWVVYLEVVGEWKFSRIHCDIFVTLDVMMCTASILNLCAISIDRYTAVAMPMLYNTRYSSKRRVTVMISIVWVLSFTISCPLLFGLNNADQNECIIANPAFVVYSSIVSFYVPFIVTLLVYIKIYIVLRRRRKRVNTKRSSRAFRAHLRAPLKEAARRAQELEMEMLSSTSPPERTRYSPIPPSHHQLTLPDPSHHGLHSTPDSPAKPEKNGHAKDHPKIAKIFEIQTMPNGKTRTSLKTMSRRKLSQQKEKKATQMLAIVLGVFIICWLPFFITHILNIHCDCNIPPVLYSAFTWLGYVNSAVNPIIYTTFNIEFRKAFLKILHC
Sequence of serotonin transporter (P31652 whole entry): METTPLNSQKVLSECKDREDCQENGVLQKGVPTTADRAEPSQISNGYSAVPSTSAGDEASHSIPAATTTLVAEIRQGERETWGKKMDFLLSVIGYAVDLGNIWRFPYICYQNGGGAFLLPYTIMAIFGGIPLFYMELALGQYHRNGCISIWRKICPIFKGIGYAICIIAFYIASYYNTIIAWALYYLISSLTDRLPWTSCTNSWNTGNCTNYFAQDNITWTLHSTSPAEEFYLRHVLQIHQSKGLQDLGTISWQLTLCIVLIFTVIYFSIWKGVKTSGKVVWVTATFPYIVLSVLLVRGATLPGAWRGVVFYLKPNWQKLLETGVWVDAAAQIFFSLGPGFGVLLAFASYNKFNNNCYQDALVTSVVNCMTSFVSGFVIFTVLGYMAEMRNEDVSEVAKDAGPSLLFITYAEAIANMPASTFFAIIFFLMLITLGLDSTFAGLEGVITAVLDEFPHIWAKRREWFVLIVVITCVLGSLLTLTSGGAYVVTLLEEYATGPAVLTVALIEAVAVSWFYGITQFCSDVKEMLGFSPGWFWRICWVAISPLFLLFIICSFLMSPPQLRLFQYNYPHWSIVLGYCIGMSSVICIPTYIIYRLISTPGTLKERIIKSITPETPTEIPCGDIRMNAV
Description for 5-HT1A receptor: The non-specific binding value was determined by incubating the same mixture in the presence of 10 μM 8-OH-DPAT, which was used as the standard reference compound and tested in each experiment at several concentrations to obtain a competition curve.
Following the incubation, the samples were filtered rapidly under vacuum through glass fiber filter (GF/B, Packard) presoaked with 0.3% PEI and rinsed several times with ice-cold 50 mM Tris-HCl using a 96-sample cell harvester (Unifilter, Packard). The filters were dried and the retained radioactivity was measured in a scintillation counter (Topcount, Packard) using a scintillation cocktail (Microscint 0, Packard). The experimental results were expressed as a percent inhibition of the control radioligand specific binding, and Ki was the inhibition constant.
Description for dopamine D2S receptor: Cell membrane homogenates (24 μg protein) were incubated at 22° C. for 60 minutes with 0.3 nM [3H]methyl-spiperone in the absence or presence of the test compound in a buffer solution containing 50 mM Tris-HCl (pH 7.4), 120 mM NaCl, 5 mM KCl, 5 mM MgCl2 and 1 mM EDTA.
The non-specific binding value was determined by incubating the same mixture in the presence of 10 μM (+)butaclamol.
Following the incubation, the samples were filtered rapidly under vacuum through glass fiber filter (GF/B, Packard) presoaked with 0.3% PEI and rinsed several times with ice-cold 50 mM Tris-HCl using a 96-sample cell harvester (Unifilter, Packard). The filters were dried and the retained radioactivity was measured in a scintillation counter (Topcount, Packard) using a scintillation cocktail (Microscint 0, Packard).
The experimental results were expressed as a percent inhibition of the control radioligand specific binding, and Ki was the inhibition constant. The standard reference compound was (+)butaclamol, which was tested in each experiment at several concentrations to obtain a competition curve from which its IC50 was calculated, and then Ki value was calculated by ChengPrusoff equation.

In the case of `COc1cc(OC)nc(N2CCN(CCCCc3c[nH]c4ccc(F)cc34)CC2)n1` [Example 4, 3-(4-(4-(4,6-Dimethoxypyrimidin-2-yl)piperazin-1-yl)butyl)-5-fluoro-1H-indole], the IC50 against serotonin transporter was found to be 0.0064 µM. For the same compound, the Ki at dopamine D2S receptor was found to be 0.11 µM; on 5-HT1A receptor it was 0.0028 µM.
The matching figures for `COc1cc(OC)nc(N2CCN(CCCc3c[nH]c4ccc(C#N)cc34)CC2)n1` [Example 10, 3-(3-(4-(4,6-Dimethoxypyrimidin-2-yl)piperazin-1-yl)propyl)-1H-indole-5-carbonitrile]: 0.0036 µM, 0.2 µM and 0.0013 µM.
As for `Cc1cc(C)nc(N2CCN(CCCc3c[nH]c4ccccc34)CC2)n1` [Example 16, 3-(3-(4-(4,6-Dimethylpyrimidin-2-yl)piperazin-1-yl)propyl)-1H-indole], the IC50 against serotonin transporter is 0.053 µM. The Ki at dopamine D2S receptor worked out at 0.11 µM; on 5-HT1A receptor, 0.0041 µM.
The matching figures for `N#Cc1ccc2[nH]cc(CCCN3CCN(c4nccc(C#N)n4)CC3)c2c1` [Example 26, 3-(3-(4-(4-Cyanopyrimidin-2-yl)piperazin-1-yl)propyl)-1H-indole-5-carbonitrile]: 0.0026 µM, 0.19 µM and 0.008 µM.
The matching figures for `NC(=O)c1ccnc(N2CCN(CCCCc3c[nH]c4ccc(F)cc34)CC2)n1` [Example 27, 2-(4-(4-(5-Fluoro-1H-indol-3-yl)butyl)piperazin-1-yl)pyrimidine-4-carboxamide]: 0.0027 µM, more than 1 µM and 0.06 µM.
The matching figures for `N#Cc1ccc2[nH]cc(CCCCN3CCN(c4nccc(C(N)=O)n4)CC3)c2c1` [Example 28, 2-(4-(4-(5-Cyano-1H-indol-3-yl)butyl)piperazin-1-yl)pyrimidine-4-carboxamide]: 0.001 µM, 0.31 µM and 0.01 µM.
Consider `NC(=O)c1ccnc(N2CCN(CCCc3c[nH]c4ccc(F)cc34)CC2)n1` [Example 29, 2-(4-(3-(5-Fluoro-1H-indol-3-yl)propyl)piperazin-1-yl)pyrimidine-4-carboxamide], for which the IC50 against serotonin transporter was 0.0014 µM. Moreover, the Ki worked out at 0.23 µM at dopamine D2S receptor and 0.012 µM at 5-HT1A receptor.
The matching figures for `N#Cc1ccc2[nH]cc(CCCN3CCN(c4nccc(C(N)=O)n4)CC3)c2c1` [Example 30, 2-(4-(3-(5-Cyano-1H-indol-3-yl)propyl)piperazin-1-yl)pyrimidine-4-carboxamide]: 0.00075 µM, more than 1 µM and 0.014 µM.
The matching figures for `CCOC(=O)c1sc(N2CCN(CCCCc3c[nH]c4ccc(F)cc34)CC2)nc1C` [Example 37, Ethyl 2-(4-(4-(5-fluoro-1H-indol-3-yl)butyl)piperazin-1-yl)-4-methylthiazole-5-carboxylate]: 0.007 µM, 0.13 µM and 0.0055 µM.
The matching figures for `CCOC(=O)c1sc(N2CCN(CCCc3c[nH]c4ccc(F)cc34)CC2)nc1C` [Example 38, Ethyl 2-(4-(3-(5-fluoro-1H-indol-3-yl)propyl)piperazin-1-yl)-4-methylthiazole-5-carboxylate]: 0.011 µM, 0.27 µM and 0.00027 µM.
`CCOC(=O)c1sc(N2CCN(CCCc3c[nH]c4ccc(C#N)cc34)CC2)nc1C` [Example 40, Ethyl 2-(4-(3-(5-cyano-1H-indol-3-yl)propyl)piperazin-1-yl)-4-methylthiazole-5-carboxylate] had an IC50 at serotonin transporter of 0.0035 µM. For the same compound, the results for the Ki on dopamine D2S receptor and at 5-HT1A receptor were more than 1 µM and 0.0003 µM, respectively.
For the compound `Cc1nc(N2CCN(CCCCc3c[nH]c4ccc(F)cc34)CC2)sc1C(N)=O` [Example 41, 2-(4-(4-(5-Fluoro-1H-indol-3-yl)butyl)piperazin-1-yl)-4-methylthiazole-5-carboxamide], at serotonin transporter, the IC50 is 0.0024 µM. Besides, the Ki at dopamine D2S receptor is 0.14 µM; at 5-HT1A receptor, 0.023 µM.
